How the values were obtained:
soybean = assay: Test B pre/postemergence soybean; type: in vivo, Glycine max
Summary of the method: (§1)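 Test chemicals in a non-phytotoxic solvent mixture with surfactant were sprayed preemergence onto planted seeds and postemergence onto plants 2 to 18 cm tall (1- to 4-leaf stage). After twelve to sixteen days in a greenhouse, injury was visually rated against untreated controls from 0 (no effect) to 10 (complete control).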

smallflower flatsedge = assay: Test B flood test smallflower flatsedge; type: in vivo, Cyperus difformis
Summary of the method: (§2)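 Read-out is a visual response score from 0 (no effect) to 10 (complete control), assigned by comparison with untreated controls. Treatment was applied at the 2-leaf stage, and plants stayed in the greenhouse for twelve to sixteen days before scoring.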

corn = assay: Test B pre/postemergence corn; type: in vivo, Zea mays
Summary of the method: as §1

duck salad = assay: Test B flood test duck salad; type: in vivo, Heteranthera limosa
Summary of the method: as §2

bamyardgrass = assay: Test B flood test barnyardgrass; type: in vivo, Echinochloa crus-galli
Summary of the method: as §2

morningglory = assay: Test B pre/postemergence morningglory; type: in vivo, Ipomoea hederacea; details: for Plant response rating, Morningglory: scale of 0 to 10 where 0 is no effect and 10 is complete control
Summary of the method: as §1

crabgrass = assay: Test B pre/postemergence crabgrass; type: in vivo, Digitaria sanguinalis
Summary of the method: as §1

pigweed = assay: Test B pre/postemergence pigweed; type: in vivo, Amaranthus retroflexus
Summary of the method: as §1

sugar beet = assay: Test B pre/postemergence sugar beet; type: in vivo, Beta vulgaris
Summary of the method: as §1

rape = assay: Test B pre/postemergence rape; type: in vivo, Brassica napus
Summary of the method: as §1

rice = assay: Test B flood test rice; type: in vivo, Oryza sativa
Summary of the method: as §2

bedstraw = assay: Test B pre/postemergence bedstraw; type: in vivo, Galium aparine; details: Postemergence
Summary of the method: as §1

velvetleaf = assay: Test B pre/postemergence velvetleaf; type: in vivo, Abutilon theophrasti
Summary of the method: as §1

wild oat = assay: Test B pre/postemergence wild oat; type: in vivo, Avena fatua
Summary of the method: as §1

cocklebur = assay: Test B pre/postemergence cocklebur; type: in vivo, Xanthium strumarium
Summary of the method: as §1

surinam grass = assay: Test B pre/postemergence surinam grass; type: in vivo, Brachiaria decumbens
Summary of the method: as §1

[1] = Postemergence, Rate 250 g/ha, scale 0 to 10
[2] = Postemergence, Rate 500 g/ha, scale of 0 to 10 where 0 is no effect and 10 is complete control
[3] = Preemergence, Rate 62 g/ha, scale of 0 to 10 where 0 is no effect and 10 is complete control
[4] = Preemergence, Rate 125 g/ha, scale of 0 to 10 where 0 is no effect and 10 is complete control
[5] = Preemergence, Rate 250 g/ha, scale 0 to 10, 0 is no effect, 10 is complete control
[6] = Preemergence, Rate 500 g/ha, scale 0 to 10, 0 is no effect, 10 is complete control
[7] = Rate 62 g/ha, Postemergence, scale 0 to 10 (0 no effect, 10 complete control)
[8] = Rate 125 g/ha, Postemergence, scale 0 to 10, 0 is no effect, 10 is complete control
[9] = Postemergence block (flood test species), Rate 250 g/ha, scale 0 to 10
[10] = Postemergence section (flood test species), Rate 500 g/ha, scale of 0 to 10 where 0 is no effect and 10 is complete control
[11] = Rate 62 g/ha, Postemergence (flood test), scale 0 to 10, 0 no effect, 10 complete control
[12] = Rate 125 g/ha, Postemergence section (flood test species), scale 0 to 10, 0 is no effect, 10 is complete control

## CC(C)N(C(=O)n1oc(=O)n(CC(=O)N(C)C)c1=O)c1ccc(F)cc1F [Compound 440]
soybean; [1]
  Soybean plant response rating: 6
soybean; [2]
  Soybean plant response rating: 7
soybean; [3]
  Plant response rating, Soybean: 0
soybean; [4]
  Plant response rating, Soybean: 0
soybean; [5]
  Soybean plant response rating: 0
soybean; [6]
  Soybean plant response rating: 0
soybean; [7]
  Soybean plant response rating: 5
soybean; [8]
  Soybean plant response rating: 6
Smallflower flatsedge; [9]
  S. Flatsedge plant response rating: 0
Smallflower flatsedge; [10]
  S. Flatsedge plant response rating: 0
Smallflower flatsedge; [11]
  S. Flatsedge plant response rating: 0
Smallflower flatsedge; [12]
  S. Flatsedge plant response rating: 0
corn; [1]
  Corn plant response rating: 0
corn; [2]
  Corn plant response rating: 0
corn; [3]
  Plant response rating, Corn: 0
corn; [4]
  Plant response rating, Corn: 0
corn; [5]
  Corn plant response rating: 0
corn; [6]
  Corn plant response rating: 0
corn; [7]
  Corn plant response rating: 0
corn; [8]
  Corn plant response rating: 0
Duck salad; [9]
  Ducksalad plant response rating: 0
Duck salad; [10]
  Ducksalad plant response rating: 0
Duck salad; [11]
  Ducksalad plant response rating: 0
Duck salad; [12]
  Ducksalad plant response rating: 0
bamyardgrass; [9]
  Barnyardgrass plant response rating: 0
bamyardgrass; [10]
  Barnyardgrass plant response rating: 0
bamyardgrass; [11]
  Barnyardgrass plant response rating: 0
bamyardgrass; [12]
  Barnyardgrass plant response rating: 0
morningglory; [1]
  Morningglory plant response rating: 8
morningglory; Preemergence, Rate 62 g/ha
  Plant response rating, Morningglory: 0
morningglory; Preemergence, Rate 125 g/ha
  Plant response rating, Morningglory: 0
morningglory; [5]
  Morningglory plant response rating: 0
morningglory; [6]
  Morningglory plant response rating: 0
morningglory; [7]
  Morningglory plant response rating: 2
morningglory; [8]
  Morningglory plant response rating: 8
crabgrass; [1]
  Crabgrass plant response rating: 9
crabgrass; [2]
  Crabgrass plant response rating: 9
crabgrass; [3]
  Plant response rating, Crabgrass: 7
crabgrass; [4]
  Plant response rating, Crabgrass: 7
crabgrass; [5]
  Crabgrass plant response rating: 10
crabgrass; [6]
  Crabgrass plant response rating: 10
crabgrass; [7]
  Crabgrass plant response rating: 1
crabgrass; [8]
  Crabgrass plant response rating: 2
pigweed; [1]
  Redroot pigweed plant response rating: 3
pigweed; [2]
  Redroot pigweed plant response rating: 4
pigweed; [3]
  Plant response rating, Redroot pigweed: 0
pigweed; [4]
  Plant response rating, Redroot pigweed: 4
pigweed; [5]
  Redroot pigweed plant response rating: 7
pigweed; [6]
  Redroot pigweed plant response rating: 10
pigweed; [7]
  Redroot pigweed plant response rating: 0
pigweed; [8]
  Redroot pigweed plant response rating: 1
Sugar beet; [1]
  Sugarbeets plant response rating: 0
Sugar beet; [2]
  Sugarbeets plant response rating: 2
Sugar beet; [3]
  Plant response rating, Sugarbeets: 0
Sugar beet; [4]
  Plant response rating, Sugarbeets: 0
Sugar beet; [5]
  Sugarbeets plant response rating: 4
Sugar beet; [6]
  Sugarbeets plant response rating: 7
Sugar beet; [7]
  Sugarbeets plant response rating: 0
Sugar beet; [8]
  Sugarbeets plant response rating: 0
rape; [1]
  Rape plant response rating: 0
rape; [2]
  Rape plant response rating: 0
rape; [3]
  Plant response rating, Rape: 0
rape; [4]
  Plant response rating, Rape: 0
rape; [5]
  Rape plant response rating: 3
rape; [6]
  Rape plant response rating: 3
rape; [7]
  Rape plant response rating: 0
rape; [8]
  Rape plant response rating: 0
rice; [9]
  Rice plant response rating: 0
rice; [10]
  Rice plant response rating: 0
rice; [11]
  Rice plant response rating: 0
rice; [12]
  Rice plant response rating: 0
bedstraw; Rate 250 g/ha, scale 0 to 10
  Bedstraw plant response rating: 2
bedstraw; Rate 125 g/ha, scale 0 to 10, 0 is no effect, 10 is complete control
  Bedstraw plant response rating: 0
velvetleaf; [1]
  Velvetleaf plant response rating: 0
velvetleaf; [2]
  Velvetleaf plant response rating: 2
velvetleaf; [3]
  Plant response rating, Velvetleaf: 0
velvetleaf; [4]
  Plant response rating, Velvetleaf: 0
velvetleaf; [5]
  Velvetleaf plant response rating: 0
velvetleaf; [6]
  Velvetleaf plant response rating: 7
velvetleaf; [7]
  Velvetleaf plant response rating: 0
velvetleaf; [8]
  Velvetleaf plant response rating: 0
Wild oat; [1]
  Wild oats plant response rating: 0
Wild oat; [2]
  Wild oats plant response rating: 5
Wild oat; [3]
  Plant response rating, Wild oats: 0
Wild oat; [4]
  Plant response rating, Wild oats: 5
Wild oat; [5]
  Wild oats plant response rating: 9
Wild oat; [6]
  Wild oats plant response rating: 9
Wild oat; [7]
  Wild oats plant response rating: 0
Wild oat; [8]
  Wild oats plant response rating: 0
cocklebur; [1]
  Cocklebur plant response rating: 0
cocklebur; [2]
  Cocklebur plant response rating: 0
cocklebur; [4]
  Plant response rating, Cocklebur: 0
cocklebur; [5]
  Cocklebur plant response rating: 0
cocklebur; [6]
  Cocklebur plant response rating: 0
cocklebur; [7]
  Cocklebur plant response rating: 0
cocklebur; [8]
  Cocklebur plant response rating: 0
Surinam grass; Postemergence, Rate 250 g/ha, scale 0 to 10, 0 no effect, 10 complete control
  B. signalgrass plant response rating: 2
Surinam grass; [2]
  B. signalgrass plant response rating: 8
Surinam grass; [3]
  Plant response rating, B. signalgrass: 1
Surinam grass; [4]
  Plant response rating, B. signalgrass: 4
Surinam grass; [5]
  B. signalgrass plant response rating: 8
Surinam grass; [6]
  B. signalgrass plant response rating: 8
Surinam grass; [7]
  B. signalgrass plant response rating: 0
Surinam grass; [8]
  B. signalgrass plant response rating: 0

Reference: patent publication US6737383B1, “Herbicidal oxadiazolidines” (priority 1999, dated 2004)
